Data from patent US20230312550A1, “N-(2-(4-CYANOTHIAZOLIDIN-3-YL)-2-OXOETHYL)-QUINOLINE-4-CARBOXAMIDES” (AstraZeneca AB, priority 2020, published 2023).
≈ marks a conversion by molar mass, not a printed value.

Columns and labels:
[1] = molecular target: Prolyl endopeptidase, Prolyl Oligopeptidase (hPREP) (Homo sapiens (Human), UniProt P48147); assay: hPrep inhibition assay; type: biochemical; conditions: hPREP 0.6 nM, Z-Gly-Pro-amino-methylcoumarin 50 μM; read-out: PREP IC50
Procedure: Compounds were tested in a biochemical inhibition assay using Prolyl endopeptidase, Prolyl Oligopeptidase (hPREP) enzyme at 0.6 nM FAC (R&D Systems, 4308-SE) and the substrate Z-Gly-Pro-amino-methylcoumarin (Bachem, I-1145) at 50 μM FAC. 384 Low volume black plates (Greiner #784076) were used. […] Plates were incubated for 15 min at rt in dark. 4 μL, 100 μM substrate solution (25 mM Tris HCl, 250 mM NaCl, 0.01% Triton X-100, 5 mM Glutathione, pH 7.5) was added to each well. Plates were centrifuged at 1000 rpm and incubated for 20 min at rt in dark. The plates were read on a PHERAstar® reader with excitation 340 nm and emission 460 nm. Data were analyzed in Genedata Screener®. IC50 values were determined by plotting % inhibition versus log compound concentration and using a one site dose response model.

hFAP (M39-A757) = hFAP (M39-A757) (Homo sapiens (Human), UniProt Q12884); assay: hFAP binding assay (surface plasmon resonance); conditions: SPR, 20° C.; for hFAP Binding assay k(off) / hFAP Binding assay k(on): single cycle kinetics; for Kd: n = 1 or geometric mean n = 2-4
Sequence of hFAP (M39-A757) (Q12884 39-757): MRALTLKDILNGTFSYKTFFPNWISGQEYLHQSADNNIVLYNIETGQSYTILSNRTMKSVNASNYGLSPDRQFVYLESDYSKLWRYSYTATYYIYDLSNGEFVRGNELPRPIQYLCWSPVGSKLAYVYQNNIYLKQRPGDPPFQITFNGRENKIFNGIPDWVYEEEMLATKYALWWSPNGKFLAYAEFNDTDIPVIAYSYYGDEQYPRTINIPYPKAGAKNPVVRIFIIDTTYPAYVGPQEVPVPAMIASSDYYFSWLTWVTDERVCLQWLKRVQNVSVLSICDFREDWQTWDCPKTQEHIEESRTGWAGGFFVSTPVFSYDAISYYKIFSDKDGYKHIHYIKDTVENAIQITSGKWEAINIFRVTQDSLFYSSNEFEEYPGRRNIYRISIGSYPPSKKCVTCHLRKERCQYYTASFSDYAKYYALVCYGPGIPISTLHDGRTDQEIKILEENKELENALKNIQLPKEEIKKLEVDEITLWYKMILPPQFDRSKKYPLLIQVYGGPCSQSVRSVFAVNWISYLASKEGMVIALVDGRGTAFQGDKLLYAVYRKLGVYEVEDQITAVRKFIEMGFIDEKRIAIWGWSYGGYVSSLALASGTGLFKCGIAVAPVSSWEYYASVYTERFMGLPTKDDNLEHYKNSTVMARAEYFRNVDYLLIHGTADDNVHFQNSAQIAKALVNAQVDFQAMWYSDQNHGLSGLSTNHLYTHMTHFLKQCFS

[2] = molecular target: human Fibroblast activation protein alpha (hFAP) (Homo sapiens (Human), UniProt Q12884); assay: hFAP inhibition assay (tight binders); type: biochemical; conditions: Ala-Pro-AMC 20 μM, n = 1 or geometric mean n = 2-6; note: hFAP 2.4 pM
Sequence of human Fibroblast activation protein alpha (hFAP) (Q12884 38-760): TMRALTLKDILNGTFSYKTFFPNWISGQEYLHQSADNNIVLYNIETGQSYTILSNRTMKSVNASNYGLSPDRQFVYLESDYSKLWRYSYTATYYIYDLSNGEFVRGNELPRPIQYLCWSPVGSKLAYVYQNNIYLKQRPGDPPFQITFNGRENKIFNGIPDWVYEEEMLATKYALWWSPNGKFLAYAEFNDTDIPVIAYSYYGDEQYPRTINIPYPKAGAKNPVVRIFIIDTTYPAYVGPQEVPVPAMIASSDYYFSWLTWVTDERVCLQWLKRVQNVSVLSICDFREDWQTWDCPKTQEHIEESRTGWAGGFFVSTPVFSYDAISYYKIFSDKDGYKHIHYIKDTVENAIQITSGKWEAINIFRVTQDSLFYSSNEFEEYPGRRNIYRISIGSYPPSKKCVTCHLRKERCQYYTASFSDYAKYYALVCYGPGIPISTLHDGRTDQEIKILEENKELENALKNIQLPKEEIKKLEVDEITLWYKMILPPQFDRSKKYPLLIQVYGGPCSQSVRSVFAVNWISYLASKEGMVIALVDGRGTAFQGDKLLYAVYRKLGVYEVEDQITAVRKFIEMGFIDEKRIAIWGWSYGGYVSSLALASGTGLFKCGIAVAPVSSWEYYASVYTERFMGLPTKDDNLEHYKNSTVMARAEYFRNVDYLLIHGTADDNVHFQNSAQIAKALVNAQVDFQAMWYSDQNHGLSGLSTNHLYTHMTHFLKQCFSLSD
Procedure: The plates were read on a PHERAstar® reader with excitation 340 nm and emission 460 nm. Data were analyzed in Genedata Screener®. IC50 values were determined by plotting % inhibition versus log compound concentration and using a one site dose response model.

Kinetic solubility = conditions: kinetic from dmso stock, Solubility, kinetic solubility; n = 1 or average of n = 2-3
Procedure: Kinetic solubility was measured as described in Comput Aided Mol Des 2015, 29, 795.

[3] = Metabolic stability in rat hepatocytes (rHep); conditions: n = 1 or geometric mean of n = 2-3

Sequence of Prolyl endopeptidase, Prolyl Oligopeptidase (hPREP) (P48147 whole entry): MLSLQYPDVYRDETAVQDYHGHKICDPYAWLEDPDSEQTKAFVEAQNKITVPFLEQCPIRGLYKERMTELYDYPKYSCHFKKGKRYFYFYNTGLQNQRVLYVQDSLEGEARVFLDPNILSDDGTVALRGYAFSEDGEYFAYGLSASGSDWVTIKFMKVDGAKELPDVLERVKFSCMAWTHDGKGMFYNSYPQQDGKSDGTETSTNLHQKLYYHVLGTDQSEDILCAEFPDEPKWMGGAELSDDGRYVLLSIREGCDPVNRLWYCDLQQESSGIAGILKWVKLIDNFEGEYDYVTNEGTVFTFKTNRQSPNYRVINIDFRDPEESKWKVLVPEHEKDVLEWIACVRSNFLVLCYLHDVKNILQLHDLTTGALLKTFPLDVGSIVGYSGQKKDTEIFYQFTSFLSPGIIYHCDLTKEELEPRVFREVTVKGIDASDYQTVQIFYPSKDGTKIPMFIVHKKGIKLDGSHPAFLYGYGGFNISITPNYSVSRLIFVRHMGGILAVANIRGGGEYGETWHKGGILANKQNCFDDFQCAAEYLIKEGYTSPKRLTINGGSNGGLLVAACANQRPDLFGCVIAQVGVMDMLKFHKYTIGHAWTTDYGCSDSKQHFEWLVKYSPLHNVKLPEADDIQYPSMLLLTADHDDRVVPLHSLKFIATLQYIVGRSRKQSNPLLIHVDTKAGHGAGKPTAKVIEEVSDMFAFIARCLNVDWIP

| SMILES | IC50 [1] | hFAP Binding assay k(off) (hFAP (M39-A757)) | hFAP Binding assay k(on) (hFAP (M39-A757)) | IC50 [2] | Kd (hFAP (M39-A757)) | solubility (Kinetic solubility) | rHep CLint [3] |
| --- | --- | --- | --- | --- | --- | --- | --- |
| C[C@@H]1CN(c2ccc3nccc(C(=O)NCC(=O)N4CSC[C@H]4C#N)c3c2)[C@H](C)CO1 [Example 87, N-(2-((R)-4-Cyanothiazolidin-3-yl)-2-oxoethyl)-6-((2R,5R)-2,5-dimethyl-morpholino)quinoline-4-carboxamide] | 760 nM | 0.00011 s⁻¹ | 2800000 M⁻¹ s⁻¹ |  |  |  |  |
| CC1(C)CN(c2ccc3nccc(C(=O)NCC(=O)N4CSC[C@H]4C#N)c3c2)C1 [Example 22, (R)—N-(2-(4-Cyanothiazolidin-3-yl)-2-oxoethyl)-6-(3,3-dimethylazetidin-1-yl)quinoline-4-carboxamide] | 470 nM | 0.000047 s⁻¹ | 940000 M⁻¹ s⁻¹ |  |  |  |  |
| C[C@@H]1[C@@H](C)OCCN1c1ccc2nccc(C(=O)NCC(=O)N3CSC[C@H]3C#N)c2c1 [Example 83, N-(2-((R)-4-Cyanothiazolidin-3-yl)-2-oxoethyl)-6-((2R,3R)-2,3-dimethyl-morpholino)quinoline-4-carboxamide] | 640 nM | 0.000064 s⁻¹ | 1700000 M⁻¹ s⁻¹ |  |  |  |  |
| Cc1ccc2c(C(=O)NCC(=O)N3CSC[C@H]3C#N)ccnc2c1 [B, (R)—N-(2-(4-cyanothiazolidin-3-yl)-2-oxoethyl)-7-methylquinoline-4-carboxamide, reference compound] | 5.2 nM |  |  |  |  |  |  |
| CC1(C)COCCN1c1ccc2nccc(C(=O)NCC(=O)N3CSC[C@H]3C#N)c2c1 [Example 107, (R)—N-(2-(4-Cyanothiazolidin-3-yl)-2-oxoethyl)-6-(3,3-dimethyl-morpholino)quinoline-4-carboxamide] | 1100 nM | 0.00016 s⁻¹ | 1900000 M⁻¹ s⁻¹ |  |  |  |  |
| COC[C@H]1COCCN1c1ccc2nccc(C(=O)NCC(=O)N3CSC[C@H]3C#N)c2c1 [Example 89, N-(2-((R)-4-Cyanothiazolidin-3-yl)-2-oxoethyl)-6-((S)-3-(methoxymethyl)-morpholino)quinoline-4-carboxamide] | 1300 nM | 0.00015 s⁻¹ | 3600000 M⁻¹ s⁻¹ |  |  |  |  |
| C[C@H]1COCCN1c1ccc2nccc(C(=O)NCC(=O)N3CSC[C@H]3C#N)c2c1 [Example 102, N-(2-((R)-4-Cyanothiazolidin-3-yl)-2-oxoethyl)-6-((S)-3-methyl-morpholino)quinoline-4-carboxamide] | 680 nM | 0.000080 s⁻¹ | 2000000 M⁻¹ s⁻¹ |  |  |  |  |
| N#C[C@@H]1CSCN1C(=O)CNC(=O)c1ccnc2ccc(N3CCCOCC3)cc12 [Example 91, (R)—N-(2-(4-Cyanothiazolidin-3-yl)-2-oxoethyl)-6-(1,4-oxazepan-4-yl)-quinoline-4-carboxamide] | 260 nM | 0.00021 s⁻¹ | 3200000 M⁻¹ s⁻¹ |  |  |  |  |
| C[C@H]1CN(c2ccc3nccc(C(=O)NCC(=O)N4CSC[C@H]4C#N)c3c2)C[C@H](C)O1 [Example 78, N-(2-((R)-4-Cyanothiazolidin-3-yl)-2-oxoethyl)-6-((2S,6S)-2,6-dimethyl-morpholino)quinoline-4-carboxamide] | 890 nM | 0.00010 s⁻¹ | 880000 M⁻¹ s⁻¹ |  |  |  |  |
| N#C[C@@H]1CSCN1C(=O)CNC(=O)c1ccnc2ccc(N3CCOc4ccccc43)cc12 [Example 6, (R)—N-(2-(4-Cyanothiazolidin-3-yl)-2-oxoethyl)-6-(2,3-dihydro-4H-benzo[b][1,4]oxazin-4-yl)quinoline-4-carboxamide] | 200 nM | 18 s⁻¹ | 40000000000 M⁻¹ s⁻¹ | 0.51 nM | 0.38 nM | 120 µM (≈ 55.1 µg/mL) | 100 μL/min/1E6 |
| N#C[C@@H]1CSCN1C(=O)CNC(=O)c1ccnc2ccc(N3CCC(F)(F)C3)cc12 [Example 47, (R)—N-(2-(4-Cyanothiazolidin-3-yl)-2-oxoethyl)-6-(3,3-difluoropyrrolidin-1-yl)quinoline-4-carboxamide] | 270 nM | 0.00016 s⁻¹ | 5600000 M⁻¹ s⁻¹ |  |  |  |  |
| N#C[C@@H]1CSCN1C(=O)CNC(=O)c1ccnc2ccc(N3CCCC3=O)cc12 [Example 11, (R)—N-(2-(4-Cyanothiazolidin-3-yl)-2-oxoethyl)-6-(2-oxopyrrolidin-1-yl)-quinoline-4-carboxamide] | 140 nM |  |  |  |  |  |  |
| C[C@H]1OCCN(c2ccc3nccc(C(=O)NCC(=O)N4CSC[C@H]4C#N)c3c2)[C@H]1C [Example 81, N-(2-((R)-4-Cyanothiazolidin-3-yl)-2-oxoethyl)-6-((2R,3S)-2,3-dimethyl-morpholino)quinoline-4-carboxamide] | 1700 nM | 0.000063 s⁻¹ | 1400000 M⁻¹ s⁻¹ |  |  |  |  |

Other lines, results leading:

| IC50 [1] | hFAP Binding assay k(off) (hFAP (M39-A757)) | hFAP Binding assay k(on) (hFAP (M39-A757)) | IC50 [2] | Kd (hFAP (M39-A757)) | solubility (Kinetic solubility) | rHep CLint [3] | SMILES |
| --- | --- | --- | --- | --- | --- | --- | --- |
| 330 nM | 0.00012 s⁻¹ | 1400000 M⁻¹ s⁻¹ |  |  |  |  | Cn1cc(-c2ccc3nccc(C(=O)NCC(=O)N4CSC[C@H]4C#N)c3c2)cn1 [Example 129, (R)—N-(2-(4-Cyanothiazolidin-3-yl)-2-oxoethyl)-6-(1-methyl-1H-pyrazol-4-yl)quinoline-4-carboxamide] |
| 470 nM | 0.000075 s⁻¹ | 2500000 M⁻¹ s⁻¹ |  |  |  |  | CCC1(F)CN(c2ccc3nccc(C(=O)NCC(=O)N4CSC[C@H]4C#N)c3c2)C1 [Example 138, (R)—N-(2-(4-Cyanothiazolidin-3-yl)-2-oxoethyl)-6-(3-ethyl-3-fluoro-azetidin-1-yl)quinoline-4-carboxamide] |
| 690 nM | 0.000014 s⁻¹ | 1000000 M⁻¹ s⁻¹ |  |  |  |  | CCOC1(C)CN(c2ccc3nccc(C(=O)NCC(=O)N4CSC[C@H]4C#N)c3c2)C1 [Example 152, (R)—N-(2-(4-Cyanothiazolidin-3-yl)-2-oxoethyl)-6-(3-ethoxy-3-methyl-azetidin-1-yl)quinoline-4-carboxamide] |
| 540 nM | 0.000085 s⁻¹ | 5300000 M⁻¹ s⁻¹ |  |  |  |  | N#C[C@@H]1CSCN1C(=O)CNC(=O)c1ccnc2ccc(N3CC4(CCO4)C3)cc12 [Example 153, (R)—N-(2-(4-Cyanothiazolidin-3-yl)-2-oxoethyl)-6-(1-oxa-6-azaspiro[3.3]heptan-6-yl)quinoline-4-carboxamide] |
| 410 nM | 0.000046 s⁻¹ | 8500000 M⁻¹ s⁻¹ |  |  |  |  | N#C[C@@H]1CSCN1C(=O)CNC(=O)c1ccnc2ccc(N3CC[C@H](CO)C3)cc12 [Example 221, N-(2-((R)-4-Cyanothiazolidin-3-yl)-2-oxoethyl)-6-((S)-3-(hydroxymethyl)-pyrrolidin-1-yl)quinoline-4-carboxamide] |
| 1000 nM | 0.000050 s⁻¹ | 1400000 M⁻¹ s⁻¹ |  |  |  |  | C[C@@H]1COCCN1c1ccc2nccc(C(=O)NCC(=O)N3CSC[C@H]3C#N)c2c1 [Example 108, N-(2-((R)-4-Cyanothiazolidin-3-yl)-2-oxoethyl)-6-((R)-3-methyl-morpholino)quinoline-4-carboxamide] |
| 390 nM | 0.000050 s⁻¹ | 1600000 M⁻¹ s⁻¹ |  |  |  |  | N#C[C@@H]1CSCN1C(=O)CNC(=O)c1ccnc2ccc(N3CC[C@@H](CO)C3)cc12 [Example 220, N-(2-((R)-4-Cyanothiazolidin-3-yl)-2-oxoethyl)-6-((R)-3-(hydroxymethyl)-pyrrolidin-1-yl)quinoline-4-carboxamide] |
| 630 nM | 0.000048 s⁻¹ | 1600000 M⁻¹ s⁻¹ | 0.16 nM | 0.032 nM |  |  | C[C@]1(O)CCN(c2ccc3nccc(C(=O)NCC(=O)N4CSC[C@H]4C#N)c3c2)C1 [Example 168, N-(2-((R)-4-Cyanothiazolidin-3-yl)-2-oxoethyl)-6-((S)-3-hydroxy-3-methylpyrrolidin-1-yl)quinoline-4-carboxamide] |
| 1600 nM | 0.000027 s⁻¹ | 180000 M⁻¹ s⁻¹ |  |  |  |  | CC(=O)NCC1(C)CN(c2ccc3nccc(C(=O)NCC(=O)N4CSC[C@H]4C#N)c3c2)C1 [Example 181, (R)-6-(3-(Acetamidomethyl)-3-methylazetidin-1-yl)-N-(2-(4-cyano-thiazolidin-3-yl)-2-oxoethyl)quinoline-4-carboxamide] |
|  | 0.0099 s⁻¹ | 1200000 M⁻¹ s⁻¹ |  |  |  |  | Cc1cc(C(=O)NCC(=O)N2CSC[C@H]2C#N)c2cc(N3CCOCC3)ccc2n1 [Example 109, (R)—N-(2-(4-Cyanothiazolidin-3-yl)-2-oxoethyl)-2-methyl-6-morpholino-quinoline-4-carboxamide] |
